Data from US4021574A, “Antidandruff compositions containing 9-(4-lower alkoxy-2,3,6-trilower-alkylphenyl)-3,7-dimethyl-nona-2,4,6,8-tetraen-1-o ic acid lower alkyl amides” (Hoffmann-La Roche Inc., priority 1974, dated 1977).

Legend:
corneocytes on the scalp = assay: Antidandruff activity: number of corneocytes on the scalp of male volunteers; type: in vivo, human (male volunteers)
Experimental: Dermatology, Vol. 53, p. 107 (1969). Each volunteer was treated by applying to the scalp 15 ml. of 0.1% by weight solution thereof daily for seven days. The number of corneocytes on the scalp of each subject was determined one day before treatment began and 1 day after termination of treatment.

LD50 s.c. in the mouse = details: in vivo, sc

SMILES: CCNC(=O)/C=C(C)/C=C/C=C(C)/C=C/c1c(C)cc(OC)c(C)c1C [9-(4-methoxy-2,3,6-trimethylphenyl)-3,7-dimethyl-nona-2,4,6,8-tetraen-1-oic acid ethyl amide]
- Number of Corneocytes, one day post treatment (corneocytes on the scalp; Volunteer No. 1, 15 ml of 0.1% by weight solution on scalp daily for seven days, one day pre-treatment: 2100): 1400
- Number of Corneocytes, one day post treatment (corneocytes on the scalp; Volunteer No. 2, 15 ml of 0.1% by weight solution on scalp daily for seven days, one day pre-treatment: 5100): 1500
- Number of Corneocytes, one day post treatment (corneocytes on the scalp; Volunteer No. 3, 15 ml of 0.1% by weight solution on scalp daily for seven days, one day pre-treatment: 3250): 1600
- Number of Corneocytes, one day post treatment (corneocytes on the scalp; Volunteer No. 4, 15 ml of 0.1% by weight solution on scalp daily for seven days, one day pre-treatment: 1900): 1600
- decline in number of corneocytes (average) (corneocytes on the scalp; four volunteers, one day post treatment vs one day pre-treatment, 15 ml of 0.1% by weight solution daily for seven days): 50%
- Number of Corneocytes, one day post treatment, Total (corneocytes on the scalp; total of four volunteers, 15 ml of 0.1% by weight solution on scalp daily for seven days, one day pre-treatment total: 12350): 6100
- LD50 (LD50 s.c. in the mouse): > 4000 mg/kg
